What was measured:
Rattus norvegicus [1] = experiment: Antiinflammatory activity against formalin-induced chronic paw edema rat inflammatory model assessed as reduction of paw volume at 100 mg/kg, po after 3 days relative to control; format: functional; design: scale not given: the % may be the effect or the level left
Rattus norvegicus [2] = experiment: Antiinflammatory activity against formalin-induced chronic paw edema rat inflammatory model assessed as reduction of paw volume at 100 mg/kg, po after 4 days relative to control; format: functional; design: scale not given: the % may be the effect or the level left
Rattus norvegicus [3] = experiment: Antiinflammatory activity against carrageenan-induced acute paw edema Sprague-Dawley rat inflammatory model assessed as reduction of paw volume at 100 mg/kg, po after 3 hrs relative to control; format: functional; design: scale not given: the % may be the effect or the level left
[4] = target: Prostaglandin G/H synthase 1 (Homo sapiens) (UniProt P23219); experiment: Inhibition of COX1 at 10 uM
Chain of Prostaglandin G/H synthase 1 (Homo sapiens) (P23219 whole entry): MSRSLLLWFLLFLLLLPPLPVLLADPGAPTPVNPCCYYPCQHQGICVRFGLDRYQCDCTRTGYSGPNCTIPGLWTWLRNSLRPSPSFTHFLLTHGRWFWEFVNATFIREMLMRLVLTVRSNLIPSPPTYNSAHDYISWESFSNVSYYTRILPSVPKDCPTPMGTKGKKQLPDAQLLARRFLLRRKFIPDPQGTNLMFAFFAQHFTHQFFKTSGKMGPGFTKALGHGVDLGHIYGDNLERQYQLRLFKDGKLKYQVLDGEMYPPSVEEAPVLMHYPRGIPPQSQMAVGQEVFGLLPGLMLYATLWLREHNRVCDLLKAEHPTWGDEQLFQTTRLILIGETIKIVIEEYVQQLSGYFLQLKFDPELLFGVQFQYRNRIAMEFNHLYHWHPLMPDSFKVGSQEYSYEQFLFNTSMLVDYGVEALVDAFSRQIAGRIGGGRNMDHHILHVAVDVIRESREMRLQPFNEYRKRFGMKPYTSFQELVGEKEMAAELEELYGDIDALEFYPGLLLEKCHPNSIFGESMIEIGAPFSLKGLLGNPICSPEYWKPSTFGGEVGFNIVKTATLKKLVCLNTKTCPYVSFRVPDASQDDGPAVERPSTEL

Rattus norvegicus [5] = experiment: Antiinflammatory activity against formalin-induced chronic paw edema rat inflammatory model assessed as reduction of paw volume at 100 mg/kg, po after 5 days relative to control; format: functional; design: scale not given: the % may be the effect or the level left
[6] = target: T1, Prostaglandin G/H synthase 2 (Homo sapiens) (UniProt P35354); experiment: Inhibition of COX2 at 10 uM
T1 sequence (whole entry): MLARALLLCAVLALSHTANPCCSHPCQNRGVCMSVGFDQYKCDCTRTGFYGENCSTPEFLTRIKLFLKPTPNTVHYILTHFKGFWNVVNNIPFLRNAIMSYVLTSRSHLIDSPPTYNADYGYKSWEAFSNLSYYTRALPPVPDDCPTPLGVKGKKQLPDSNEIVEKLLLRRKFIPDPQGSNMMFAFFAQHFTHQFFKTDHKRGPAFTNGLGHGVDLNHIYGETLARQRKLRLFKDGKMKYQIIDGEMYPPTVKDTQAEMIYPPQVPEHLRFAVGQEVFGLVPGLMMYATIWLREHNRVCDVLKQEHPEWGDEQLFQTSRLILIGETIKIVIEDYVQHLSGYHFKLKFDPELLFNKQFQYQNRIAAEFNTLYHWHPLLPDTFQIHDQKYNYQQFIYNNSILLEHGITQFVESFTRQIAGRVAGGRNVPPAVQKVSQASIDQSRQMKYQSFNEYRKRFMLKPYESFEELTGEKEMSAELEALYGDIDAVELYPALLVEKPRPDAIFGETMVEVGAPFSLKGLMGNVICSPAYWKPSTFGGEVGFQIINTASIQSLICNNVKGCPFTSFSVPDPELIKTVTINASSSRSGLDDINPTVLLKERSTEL

Rattus norvegicus [7] = experiment: Antiinflammatory activity against formalin-induced chronic paw edema rat inflammatory model assessed as reduction of paw volume at 100 mg/kg, po after 1 day relative to control; format: functional; design: scale not given: the % may be the effect or the level left
Rattus norvegicus [8] = experiment: Antiinflammatory activity against formalin-induced chronic paw edema rat inflammatory model assessed as reduction of paw volume at 100 mg/kg, po after 2 days relative to control; format: functional; design: scale not given: the % may be the effect or the level left
Rattus norvegicus [9] = experiment: Antiinflammatory activity against formalin-induced chronic paw edema rat inflammatory model assessed as reduction of paw volume at 5 mg/kg, po after 4 days relative to control; format: functional; design: scale not given: the % may be the effect or the level left
Rattus norvegicus [10] = experiment: Antiinflammatory activity against formalin-induced chronic paw edema rat inflammatory model assessed as reduction of paw volume at 5 mg/kg, po after 2 days relative to control; format: functional; design: scale not given: the % may be the effect or the level left
Rattus norvegicus [11] = experiment: Antiinflammatory activity against formalin-induced chronic paw edema rat inflammatory model assessed as reduction of paw volume at 5 mg/kg, po after 3 days relative to control; format: functional; design: scale not given: the % may be the effect or the level left
Rattus norvegicus [12] = experiment: Antiinflammatory activity against carrageenan-induced acute paw edema Sprague-Dawley rat inflammatory model assessed as reduction of paw volume at 5 mg/kg, po after 3 hrs relative to control; format: functional; design: scale not given: the % may be the effect or the level left
Rattus norvegicus [13] = experiment: Antiinflammatory activity against formalin-induced chronic paw edema rat inflammatory model assessed as reduction of paw volume at 5 mg/kg, po after 1 day relative to control; format: functional; design: scale not given: the % may be the effect or the level left
Rattus norvegicus [14] = experiment: Antiinflammatory activity against formalin-induced chronic paw edema rat inflammatory model assessed as reduction of paw volume at 5 mg/kg, po after 5 days relative to control; format: functional; design: scale not given: the % may be the effect or the level left
Rattus norvegicus [15] = experiment: Toxic gastric-ulcerogenic effect in Sprague-Dawley rat assessed as lesion score at 100 mg/kg, po after 7 days; format: toxicity, organism-based; design: dose 100 mg/kg, route oral; settings: in vivo, 168 h
Rattus norvegicus [16] = experiment: Antiinflammatory activity against formalin-induced chronic paw edema rat inflammatory model assessed as reduction of paw volume at 50 mg/kg, po after 1 day relative to control; format: functional; design: scale not given: the % may be the effect or the level left
Rattus norvegicus [17] = experiment: Antiinflammatory activity against formalin-induced chronic paw edema rat inflammatory model assessed as reduction of paw volume at 50 mg/kg, po after 2 days relative to control; format: functional; design: scale not given: the % may be the effect or the level left
Rattus norvegicus [18] = experiment: Antiinflammatory activity against formalin-induced chronic paw edema rat inflammatory model assessed as reduction of paw volume at 50 mg/kg, po after 5 days relative to control; format: functional; design: scale not given: the % may be the effect or the level left
Rattus norvegicus [19] = experiment: Antiinflammatory activity against carrageenan-induced acute paw edema Sprague-Dawley rat inflammatory model assessed as reduction of paw volume at 50 mg/kg, po after 3 hrs relative to control; format: functional; design: scale not given: the % may be the effect or the level left
Rattus norvegicus [20] = experiment: Antiinflammatory activity against formalin-induced chronic paw edema rat inflammatory model assessed as reduction of paw volume at 50 mg/kg, po after 3 days relative to control; format: functional; design: scale not given: the % may be the effect or the level left
Rattus norvegicus [21] = experiment: Antiinflammatory activity against formalin-induced chronic paw edema rat inflammatory model assessed as reduction of paw volume at 50 mg/kg, po after 4 days relative to control; format: functional; design: scale not given: the % may be the effect or the level left

inhibition [4] [%]	inhibition [6] [%]	SMILES	Activity (Rattus norvegicus [1]) [%]	Activity (Rattus norvegicus [2]) [%]	Activity (Rattus norvegicus [3]) [%]	Activity (Rattus norvegicus [5]) [%]	Activity (Rattus norvegicus [7]) [%]	Activity (Rattus norvegicus [8]) [%]	Activity (Rattus norvegicus [15]) [mm]	other results
-6.25	19.5	CNc1nc(N(C)C)c(C(=O)/C(=N/OC)C(=O)OC)s1	95	72	83	66	96	90	–	–
–	–	C[C@@H]1C[C@H]2[C@@H]3CCC4=CC(=O)C=C[C@]4(C)[C@@]3(F)[C@@H](O)C[C@]2(C)[C@@]1(O)C(=O)CO [DEXAMETHASONE]	–	–	–	–	–	–	–	Activity (Rattus norvegicus [9]): 89%; Activity (Rattus norvegicus [10]): 92%; Activity (Rattus norvegicus [11]): 96%; Activity (Rattus norvegicus [12]): 85%; Activity (Rattus norvegicus [13]): 70%; Activity (Rattus norvegicus [14]): 94%
-3.61	8.91	CCOC(=O)Nc1nc(C)c(/C(=N\O)c2ccc(S(C)(=O)=O)cc2)s1	72	47	69	5	29	78	–	–
6.31	19.3	O=C(Nc1nc(-c2ccccc2)c(C(=O)C(=O)c2sc(NC(=O)c3ccccc3)nc2-c2ccccc2)s1)c1ccccc1	84	38	73	41	88	92	12	–
–	–	CS(=O)(=O)c1ccc(C2=C(c3ccccc3)C(=O)OC2)cc1 [ROFECOXIB]	–	–	–	–	–	–	–	Activity (Rattus norvegicus [16]): 39%; Activity (Rattus norvegicus [17]): 32%; Activity (Rattus norvegicus [18]): 30%; Activity (Rattus norvegicus [19]): 40%; Activity (Rattus norvegicus [20]): 35%; Activity (Rattus norvegicus [21]): 29%
4.13	15.2	COC(=O)Nc1nc(N(C)C)c(C(=O)c2ccc(S(C)(=O)=O)cc2)s1	26	43	30	0	29	40	–	–
–	–	CC(C)Cc1ccc(C(C)C(=O)O)cc1 (stereo not given) [IBUPROFEN]	–	–	–	–	–	–	12	–
–	–	CC(=O)Oc1ccccc1C(=O)O [ASPIRIN]	–	–	–	–	–	–	5	–
-5.91	10.4	CS(=O)(=O)c1ccc(C(=O)c2sc(N3CCOCC3)nc2-c2ccccc2)cc1	42	38	63	27	88	44	–	–
